Results taken from US5900488A, “Method for treating mycosis using imidazolylacetonitrile derivatives” (Nihon Nohyaku Co., Ltd., priority 1995, dated 1999).
In brackets after ≈: the same amount, converted by molar mass. Where two headings read alike, the source gives them in different places.

What was measured:
[1] = system: trichophyton mentagrophytes TIMM 2789; test: Therapeutic efficacy on experimental tinea pedis in guinea pigs (Test Example 2); assay type: in vivo
Method: Male Hartley guinea pigs (Japan SLC Inc.) weighing 400 to 620 g were used for the infection study. One side of a paper disc (1.5 mm thick×8 mm diameter) was covered with a piece of aluminum foil while the other side was free to carry the inoculum suspension. The disc was immersed with 50 μl of the inoculum suspension (trichophyton mentagrophytes TIMM 2789, 1×10^8 conidia/ml), and was then fixed on the planta pedis of animal feet with an adhesive elastic tape. The disc was removed on the seventh day postinfection. Each agent dissolved in PEG 400 (0.1 ml/locus) was topically applied to the whole soles of guinea pigs once a day for 3 consecutive days, starting on the 10th day postinfection. Five days after the last treatment, the skin tissue from each planta pedis and the corresponding tarsus of all animals was cut into small blocks (about 2×2 mm). Ten skin blocks obtained from each part of the foot were implanted on a Sabouraud's glucose agar plate containing antibiotics, and were cultured at 27° C. for 14 days. The skin blocks yielding fungal growth were regarded as culture-positive, and the foot (planta pedis plus tarsus) with more than one culture-positive skin block was considered fungus-positive. In addition, the intensity of infection was assessed by the scores based on the number of culture-positive skin blocks. Namely, +10, +9, +8, +7, +6, +5, +4, +3, +2, +1 or 0 was given as the score according to the corresponding number of culture-positive skin blocks out of ten skin blocks studied. Statistical analyses for the rate of fungus-positive feet and the average intensity of infection were assessed by Fisher's exact probably test and Mann-Whitney's U-test, respectively.

Candida albicans = test: In vitro antifungal activity against Candida albicans, MIC by twofold micro-broth dilution (Test Example 3); assay type: cell-based; details: 48 hours at 35° C., pH 7.0, read-out: MIC
Method: MICs were determined by the twofold micro-broth dilution method with RPMI 1640 buffered with morphorino-propanesulfonic acid to a final molarity of 0.165M (pH 7.0). One hundred μl of a yeast cell suspension (1 to 5×10^3 cells/ml) and 100 μl of the compound-containing medium were pipetted into each well flat-bottomed microtiter plates. After incubation for 48 hours at 35° C., the turbidity of each well was measured at 630 nm.

Trichophyton rubrum = test: In vitro activity against Trichophyton rubrum, MIC by twofold macro-broth dilution (Test Example 1); assay type: cell-based
Method: (§1) Minimum inhibitory concentrations (MICs) were determined by the twofold macro-broth dilution method with Sabouraud's glucose broth which constituted with 1% bactopeptone and 4% glucose. To each tube containing 9.8 ml of the broth, 0.1 ml of each testing compound dissolved in DMSO and 0.1 ml of a conidial suspension (1×10^6 conidia/ml) were added. The fungal growth was observed after incubation for 7 days at 27° C. The MIC was determined as the lowest drug concentration which prevented a visible fungal growth.

Aspergillus fumigatus = test: In vitro antifungal activity against Aspergillus fumigatus, MIC by twofold agar dilution (Test Example 4); assay type: cell-based; details: read-out: MIC
Method: MICs were determined by the twofold agar dilution method with casitone agar which constituted with 0.9% bactocasitone, 1% bacto-yeast extract, 2% glucose, 0.1% KH2 PO4, 0.1% Na2 HPO4, 1% Na3 C6 H5 O7 and 1.6% agar. A loopful of each inoculum (1×10^6 conidia/ml) was streaked onto the agar plate containing a compound, and a fungal growth was observed after incubation for 48 hours at 35° C. The MIC was determined as the lowest drug concentration which prevented a visible fungal growth.

[2] = system: Trichophyton mentagrophytes; test: In vitro activity against Trichophyton mentagrophytes, MIC by twofold macro-broth dilution (Test Example 1); assay type: cell-based; details: Trichophyton mentagrophytes, 7 days at 27° C.
Method: as §1

[3] = 1% in PEG 400, topical once a day for 3 days, p < 0.01 vs untreated and PEG 400, Compound (A) also p < 0.05 vs 1% Racemic Compound (A)
[4] = 1% in PEG 400, topical once a day for 3 days, p < 0.01 vs untreated and PEG 400 control
[5] = IFO0197, strain IFO 0197, 80% inhibition
[6] = IFO0579, strain IFO 0579, 80% inhibition
[7] = IFO1269, strain IFO 1269, 80% inhibition
[8] = IFO1270, strain IFO 1270, 80% inhibition
[9] = IFO1385, strain IFO 1385, 80% inhibition
[10] = IFO1386, strain IFO 1386, 80% inhibition
[11] = TIMM3163, strain TIMM 3163, 80% inhibition
[12] = TIMM3164, strain TIMM 3164, 80% inhibition
[13] = TIMM3165, strain TIMM 3165, 80% inhibition
[14] = TIMM3166, strain TIMM 3166, 80% inhibition
[15] = IFO5467, 168 h, strain IFO 5467, 7 days at 27° C.
[16] = IFO5807, 168 h, strain IFO 5807, 7 days at 27° C.
[17] = IFO5808, 168 h, strain IFO 5808, 7 days at 27° C.
[18] = IFO6203, 168 h, strain IFO 6203, 7 days at 27° C.
[19] = IFO6204, 168 h, strain IFO 6204, 7 days at 27° C.
[20] = IFO9185, 168 h, strain IFO 9185, 7 days at 27° C.
[21] = TIMM1822, 168 h, strain TIMM 1822, 7 days at 27° C.
[22] = TIMM1823, 168 h, strain TIMM 1823, 7 days at 27° C.
[23] = TIMM1824, 168 h, strain TIMM 1824, 7 days at 27° C.
[24] = TIMM1830, 168 h, strain TIMM 1830, 7 days at 27° C.
[25] = IFO5466, 168 h, strain IFO 5466
[26] = IFO5809, 168 h, strain IFO 5809
[27] = IFO5810, 168 h, strain IFO 5810
[28] = IFO5811, 168 h, strain IFO 5811
[29] = IFO5929, 168 h, strain IFO 5929
[30] = TIMM1189, 168 h, strain TIMM 1189
[31] = TIMM1814, 168 h, strain TIMM 1814
[32] = TIMM1815, 168 h, strain TIMM 1815
[33] = TIMM1817, 168 h, strain TIMM 1817
[34] = TIMM2789, 168 h, strain TIMM 2789

Compound | MIC (Candida albicans; [5]) [µg/mL] | MIC (Candida albicans; [6]) [µg/mL] | MIC (Candida albicans; [7]) [µg/mL] | MIC (Candida albicans; [8]) [µg/mL] | MIC (Candida albicans; [9]) [µg/mL] | MIC (Candida albicans; [10]) [µg/mL] | MIC (Candida albicans; [11]) [µg/mL] | MIC (Candida albicans; [12]) [µg/mL] | MIC (Candida albicans; [13]) [µg/mL] | MIC (Candida albicans; [14]) [µg/mL] | MIC (Trichophyton rubrum; [15]) [µg/mL] | MIC (Trichophyton rubrum; [16]) [µg/mL] | MIC (Trichophyton rubrum; [17]) [µg/mL] | MIC (Trichophyton rubrum; [18]) [µg/mL] | MIC (Trichophyton rubrum; [19]) [µg/mL] | MIC (Trichophyton rubrum; [20]) [µg/mL] | MIC (Trichophyton rubrum; [21]) [µg/mL] | MIC (Trichophyton rubrum; [22]) [µg/mL] | MIC (Trichophyton rubrum; [23]) [µg/mL] | MIC (Trichophyton rubrum; [24]) [µg/mL] | also measured
N#C/C(=C1/SCC(c2ccccc2Cl)S1)n1ccnc1 (racemic) [Racemic Compound (A), (±)-(E)-[4-(2-chlorophenyl)-1,3-dithiolan-2-ylidene]-1-imidazolylacetonitrile] | 0.25 (≈ 0.782 µM) | 0.0625 (≈ 0.195 µM) | 0.125 (≈ 0.391 µM) | 1 (≈ 3.13 µM) | 0.25 (≈ 0.782 µM) | 0.25 (≈ 0.782 µM) | 16 (≈ 50 µM) | 0.5 (≈ 1.56 µM) | 4 (≈ 12.5 µM) | 2 (≈ 6.25 µM) | 0.005 (≈ 0.0156 µM) | 0.01 (≈ 0.0313 µM) | 0.01 (≈ 0.0313 µM) | 0.005 (≈ 0.0156 µM) | 0.01 (≈ 0.0313 µM) | 0.0025 (≈ 0.00782 µM) | 0.005 (≈ 0.0156 µM) | 0.01 (≈ 0.0313 µM) | 0.005 (≈ 0.0156 µM) | 0.0013 (≈ 0.00406 µM) | Fungus-positive rate (%) [1, 3]: 40%; Fungus-positive rate: The number of positive feet/The total number of feet [1, 3]: 4/10 and four feet among the inoculated ten feet; Average intensity of infection, planta pedis (score 0 to +10) [1, 4]: +0.6; Average intensity of infection, tarsus (score 0 to +10) [1, 4]: +0.2; curative effect (in words) ([1]; 1% treated group): significant curative effect; MIC (Aspergillus fumigatus; TIMM0063, strain TIMM 0063, 48 hours at 35° C.): 0.0013 µg/mL (≈ 0.00406 µM); MIC (Aspergillus fumigatus; TIMM0078, strain TIMM 0078, 48 hours at 35° C.): 0.0013 µg/mL (≈ 0.00406 µM); MIC (Aspergillus fumigatus; TIMM1728, strain TIMM 1728, 48 hours at 35° C.): 0.0013 µg/mL (≈ 0.00406 µM); MIC (Aspergillus fumigatus; TIMM1767, strain TIMM 1767, 48 hours at 35° C.): 0.0025 µg/mL (≈ 0.00782 µM); MIC [2, 25]: 0.04 µg/mL (≈ 0.125 µM); MIC [2, 26]: 0.01 µg/mL (≈ 0.0313 µM); MIC [2, 27]: 0.01 µg/mL (≈ 0.0313 µM); MIC [2, 28]: 0.04 µg/mL (≈ 0.125 µM); MIC [2, 29]: 0.02 µg/mL (≈ 0.0625 µM); MIC [2, 30]: 0.04 µg/mL (≈ 0.125 µM); MIC [2, 31]: 0.04 µg/mL (≈ 0.125 µM); MIC [2, 32]: 0.04 µg/mL (≈ 0.125 µM); MIC [2, 33]: 0.04 µg/mL (≈ 0.125 µM); MIC [2, 34]: 0.01 µg/mL (≈ 0.0313 µM)
CN(C/C=C/C#CC(C)(C)C)Cc1cccc2ccccc12 [TBF, (E)N-(6,6-Dimethyl-2-hepten-4-ynyl)-N-methyl-1-naphthalenemethaneamine hyrochloride] | > 32 | > 32 | 4 (≈ 13.7 µM) | > 32 | > 32 | > 32 | > 32 | > 32 | > 32 | > 32 | 0.005 (≈ 0.0172 µM) | 0.005 (≈ 0.0172 µM) | 0.005 (≈ 0.0172 µM) | 0.0025 (≈ 0.00858 µM) | 0.005 (≈ 0.0172 µM) | 0.0025 (≈ 0.00858 µM) | 0.0025 (≈ 0.00858 µM) | 0.0025 (≈ 0.00858 µM) | 0.0013 (≈ 0.00446 µM) | 0.00063 (≈ 0.00216 µM) | MIC [2, 25]: 0.02 µg/mL (≈ 0.0686 µM); MIC [2, 26]: 0.01 µg/mL (≈ 0.0343 µM); MIC [2, 27]: 0.005 µg/mL (≈ 0.0172 µM); MIC [2, 28]: 0.01 µg/mL (≈ 0.0343 µM); MIC [2, 29]: 0.01 µg/mL (≈ 0.0343 µM); MIC [2, 30]: 0.01 µg/mL (≈ 0.0343 µM); MIC [2, 31]: 0.01 µg/mL (≈ 0.0343 µM); MIC [2, 32]: 0.02 µg/mL (≈ 0.0686 µM); MIC [2, 33]: 0.01 µg/mL (≈ 0.0343 µM); MIC [2, 34]: 0.0025 µg/mL (≈ 0.00858 µM)
